Reference: US20240254119A1 (THIRD HARMONIC BIO, INC., priority 2022, published 2024)

Each compound was assayed against T1, wtKIT (Homo sapiens, UniProt P10721) (assay: HTRF biochemical assay, wtKIT (phosphorylation of a peptide substrate)). Conditions: Table 4.
T1 construct: 1888289AM in the reaction mixtures
Method: Exemplary compounds were tested for ability to inhibit the phosphorylation of a peptide substrate by the tyrosine kinase wt KIT, PDGFRα, or CSF-1R. Assay procedures and results are described below.
Enzyme, substrate, and cofactors (ATP and Mn^2+) are combined in a well of a microtiter plate and incubated for 3 hours at 25° C. At the end of the incubation, the reaction is quenched by the addition of an EDTA-containing buffer.
The substrate used in the CSF-1R and PDGFRα assay is FAM-[…]-CONH2 (FAM is carboxyfluorescein). Peptide should be >95% purity. The substrate for the KIT assay is FAM-[…]-NH2.
• 1. To a well of a 384-wellplate add 5 μL of 2× enzyme buffer (or control). • 2. Add 100 nL of 100× compound. Enzyme and compound may be pre-incubated at this time if desired. • 3. Add 5 μL of 2× substrate buffer. • 4. Incubate plate at 25° C. for 3 hours. • 5. Add 10 uL of anti-phosphotyrosine antibody buffer. • 6. Read plate in BioTek Synergy Reader. Reaction Conditions for wtKIT Assay
• 100 mM HEPES, pH 7.5 0.1% BSA • 0.01% Triton x-100 • 1 mM DTT • 10 mM MnCl2 • 10 μM Sodium Orthovanadate • 10 μM Beta-Glycerophosphate • 400 μM ATP • 1% DMSO (from compound) • 1 μM FAM-[…]-CONH2, 5.0 nM wtKIT Enzyme (1888289AM)* • *Specific activity may vary from lot to lot. Enzyme concentration may need to be adjusted to yield 10-20% conversion of substrate to product.

T1 sequence (P10721 26-976): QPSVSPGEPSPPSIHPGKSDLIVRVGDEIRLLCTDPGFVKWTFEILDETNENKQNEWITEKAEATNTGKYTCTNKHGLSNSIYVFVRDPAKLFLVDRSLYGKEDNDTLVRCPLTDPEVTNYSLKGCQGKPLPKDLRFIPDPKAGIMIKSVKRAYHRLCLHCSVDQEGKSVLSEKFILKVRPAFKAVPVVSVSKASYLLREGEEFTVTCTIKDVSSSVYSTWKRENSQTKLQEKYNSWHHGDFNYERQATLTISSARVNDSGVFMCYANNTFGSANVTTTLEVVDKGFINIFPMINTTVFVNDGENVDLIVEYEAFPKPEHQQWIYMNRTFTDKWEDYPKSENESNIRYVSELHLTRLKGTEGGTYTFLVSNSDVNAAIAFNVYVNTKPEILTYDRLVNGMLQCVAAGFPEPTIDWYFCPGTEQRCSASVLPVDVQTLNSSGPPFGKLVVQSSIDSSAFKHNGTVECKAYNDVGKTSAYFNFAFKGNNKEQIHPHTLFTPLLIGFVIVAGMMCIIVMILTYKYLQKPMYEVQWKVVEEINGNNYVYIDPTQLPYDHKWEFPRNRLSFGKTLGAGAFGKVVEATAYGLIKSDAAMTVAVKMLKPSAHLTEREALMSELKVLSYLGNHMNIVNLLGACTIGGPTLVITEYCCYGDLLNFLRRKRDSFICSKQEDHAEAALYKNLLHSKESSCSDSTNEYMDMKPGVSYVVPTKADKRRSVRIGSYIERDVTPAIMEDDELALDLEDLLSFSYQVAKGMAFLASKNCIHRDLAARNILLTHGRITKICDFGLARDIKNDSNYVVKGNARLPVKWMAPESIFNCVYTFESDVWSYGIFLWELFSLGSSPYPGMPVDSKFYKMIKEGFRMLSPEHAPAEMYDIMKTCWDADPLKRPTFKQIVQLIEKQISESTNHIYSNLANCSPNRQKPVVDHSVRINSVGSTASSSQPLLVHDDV

SMILES | IC50
Cc1ccc(-c2noc([C@H]3C[C@@H]3F)n2)cc1NC(=O)c1cnc2cc(F)c(Cl)cn12 [Compound I-605] | 50 to 500 nM
Cc1ccc(-c2noc(C(C)O)n2)cc1NC(=O)c1cnn2cc(-c3ccn(C)n3)ccc12 (stereo not drawn) [Compound I-730] | ≤ 50 nM
Cc1ccc(-c2noc(-c3cccnc3)n2)cc1NC(=O)c1cnn2cc(-c3ccn(C)n3)ccc12 [Compound I-723] | ≤ 50 nM
CCc1nc(-c2ccc(C)c(NC(=O)c3cnc4cc(COCCO)ccn34)c2)no1 [Compound I-754] | ≤ 50 nM
Cc1ccc(-c2noc(C3CC(N)C3)n2)cc1NC(=O)c1cnc2cc(Cl)ccn12 (stereo not drawn) [Compound I-746] | 500 to 5000 nM
Cc1ccc(-c2ncon2)cc1NC(=O)c1cnc2cc(-c3csc(CO)n3)ccn12 [Compound I-685] | ≤ 50 nM
COC[C@@H](O)c1nc(-c2ccc(C)c(NC(=O)c3cnc4cc(C)ccn34)c2)no1 [Compound I-607] | 500 to 5000 nM
Cc1ccc(-c2noc([C@H]3C[C@@H]3F)n2)cc1NC(=O)c1cnc2cc(C(=O)O)ccn12 [Compound I-491] | 50 to 500 nM
CNC(C)COCc1ccn2c(C(=O)Nc3cc(-c4noc(CC(O)C(F)F)n4)ccc3C)cnc2c1 (stereo not drawn) [Compound I-598] | 50 to 500 nM
COCc1ccn2c(C(=O)Nc3cc(-c4noc(C(C)O)n4)ccc3C)cnc2c1 (stereo not drawn) [Compound I-735] | 500 to 5000 nM
Cc1ccc(-c2noc(CCC(C)(C)O)n2)cc1NC(=O)c1cnn2ccccc12 [Compound I-563] | 50 to 500 nM
Cc1ccc(-c2noc([C@H]3C[C@@H]3F)n2)cc1NC(=O)c1cnc2cc(C(C)(C)O)ccn12 [Compound I-456] | ≤ 50 nM
Cc1ccc(-c2noc(CC3COC3)n2)cc1NC(=O)c1cnc2cc(COCC3(O)CC3)ccn12 [Compound I-637] | 50 to 500 nM
CCc1nc(-c2ccc(C)c(NC(=O)c3cnn4cc(-c5ccn(C)n5)ccc34)c2)no1 [Compound I-722] | ≤ 50 nM
Cc1ccc(-c2noc(C3CC(NC(=O)OC(C)(C)C)C3)n2)cc1NC(=O)c1cnc2cc(Cl)ccn12 (stereo not drawn) [Compound I-747] | 50 to 500 nM
Cc1ccc(-c2noc([C@H]3C[C@@H]3F)n2)cc1NC(=O)c1cnc2ccc(COCCO)cn12 [Compound I-453, N-[5-[5-[(1R,2S)-2-fluorocyclopropyl]-1,2,4-oxadiazol-3-yl]-2-methyl-phenyl]-6-(2-hydroxyethoxymethyl)imidazo[1,2-a]pyridine-3-carboxamide] | ≤ 50 nM
Cc1ccc(-c2ncon2)cc1NC(=O)c1cnc2cc(COCCO)ccn12 [Compound I-700] | 50 to 500 nM
Cc1ccc(-c2noc(C[C@H](O)C(F)F)n2)cc1NC(=O)c1cnc2cc(OCCO)ccn12 [Compound I-570, (S)—N-(5-(5-(3,3-difluoro-2-hydroxypropyl)-1,2,4-oxadiazol-3-yl)-2-methylphenyl)-7-(2-hydroxyethoxy)imidazo[1,2-a]pyridine-3-carboxamide] | ≤ 50 nM
Cc1ccc(-c2noc([C@H]3C[C@@H]3F)n2)cc1NC(=O)c1cnc2cc(CCC(C)(C)CO)ccn12 [Compound I-474, N-[5-[5-[(1R,2S)-2-fluorocyclopropyl]-1,2,4-oxadiazol-3-yl]-2-methyl-phenyl]-7-(4-hydroxy-3,3-dimethyl-butyl)imidazo[1,2-a]pyridine-3-carboxamide] | ≤ 50 nM
COc1ccn2c(C(=O)Nc3cc(-c4noc(Cc5ccc(C)cc5)n4)ccc3C)cnc2c1 [Compound I-537, 7-methoxy-N-(2-methyl-5-(5-(4-methylbenzyl)-1,2,4-oxadiazol-3-yl)phenyl)imidazo[1,2-a]pyridine-3-carboxamide] | ≤ 50 nM
Cc1ccc(-c2noc([C@H]3C[C@@H]3F)n2)cc1NC(=O)c1cnc2cc(COCC(C)(C)O)c(F)cn12 [Compound I-498, 6-fluoro-N-[5-[5-[(1R,2S)-2-fluorocyclopropyl]-1,2,4-oxadiazol-3-yl]-2-methyl-phenyl]-7-[(2-hydroxy-2-methyl-propoxy)methyl]imidazo[1,2-a]pyridine-3-carboxamide] | ≤ 50 nM
Cc1ccn2c(C(=O)Nc3cc(-c4noc(CC5CCCO5)n4)ccc3C)cnc2c1 (stereo not drawn) [Compound I-553, 7-methyl-N-(2-methyl-5-(5-((tetrahydrofuran-2-yl)methyl)-1,2,4-oxadiazol-3-yl)phenyl)imidazo[1,2-a]pyridine-3-carboxamide] | ≤ 50 nM

Results, then the compound that gave them:

IC50 | SMILES
≤ 50 nM | Cc1nc(-c2ccc(C)c(NC(=O)c3cnc4cc(-c5csc(CO)n5)ccn34)c2)no1 [Compound I-594, 7-(2-(hydroxymethyl)thiazol-4-yl)-N-(2-methyl-5-(5-methyl-1,2,4-oxadiazol-3-yl)phenyl)imidazo[1,2-a]pyridine-3-carboxamide]
≤ 50 nM | Cc1ccc(-c2noc(C[C@H](O)C(F)F)n2)cc1NC(=O)c1cnc2cc(-c3cscn3)ccn12 [Compound I-554, (S)—N-(5-(5-(3,3-difluoro-2-hydroxypropyl)-1,2,4-oxadiazol-3-yl)-2-methylphenyl)-7-(thiazol-4-yl)imidazo[1,2-a]pyridine-3-carboxamide]
≤ 50 nM | Cc1ccc(-c2noc([C@H]3C[C@@H]3F)n2)cc1NC(=O)c1cnc2cc3c(cn12)COC3C (single isomer, unassigned) [Compound I-470, (6S*)—N-[5-[5-[(1R,2S)-2-fluorocyclopropyl]-1,2,4-oxadiazol-3-yl]-2-methyl-phenyl]-6-methyl-5-oxa-1,10-diazatricyclo[7.3.0.03,7]dodeca-2,7,9,11-tetraene-12-carboxamide]
≤ 50 nM | Cc1nc(-c2ccc(C)c(NC(=O)c3cnn4cc(-c5ccn(C)n5)ccc34)c2)no1 [Compound I-535, 6-(1-methyl-1H-pyrazol-3-yl)-N-(2-methyl-5-(5-methyl-1,2,4-oxadiazol-3-yl)phenyl)pyrazolo[1,5-a]pyridine-3-carboxamide]
≤ 50 nM | Cc1ccc(-c2noc(C[C@H](C)O)n2)cc1NC(=O)c1cnc2cc(Cl)ccn12 [Compound I-602]
≤ 50 nM | Cc1ccc(-c2noc([C@H]3C[C@@H]3F)n2)cc1NC(=O)c1cnc2ccc(-c3cscn3)cn12 [Compound I-541, N-(5-(5-((1R,2S)-2-fluorocyclopropyl)-1,2,4-oxadiazol-3-yl)-2-methylphenyl)-6-(thiazol-4-yl)imidazo[1,2-a]pyridine-3-carboxamide]
≤ 50 nM | Cc1ccn2c(C(=O)Nc3cc(-c4noc(C5CCC(F)(F)CC5)n4)ccc3C)cnc2c1 [Compound I-540, 4 N-(5-(5-(4,4-difluorocyclohexyl)-1,2,4-oxadiazol-3-yl)-2-methylphenyl)-7-methylimidazo[1,2-a]pyridine-3-carboxamide]
≤ 50 nM | Cc1ccc(-c2noc([C@H]3C[C@@H]3F)n2)cc1NC(=O)c1cnc2cc(COCC(C)O)ccn12 (single isomer, unassigned) [Compound I-468, N-[5-[5-[(1R,2S)-2-fluorocyclopropyl]-1,2,4-oxadiazol-3-yl]-2-methyl-phenyl]-7-[[(2R*)-2-hydroxypropoxy]methyl]imidazo[1,2-a]pyridine-3-carboxamide]
≤ 50 nM | Cc1ccc(-c2noc(N3CC(F)(F)C3)n2)cc1NC(=O)c1cnc2cc(Cl)ccn12 [Compound I-601, 7-chloro-N-(5-(5-(3,3-difluoroazetidin-1-yl)-1,2,4-oxadiazol-3-yl)-2-methylphenyl)imidazo[1,2-a]pyridine-3-carboxamide]
≤ 50 nM | Cc1ccc(-c2noc(C[C@H](O)C(F)F)n2)cc1NC(=O)c1cnc2cc(COCc3nn[nH]n3)ccn12 [Compound I-597, (S)-7-(((2H-tetrazol-5-yl)methoxy)methyl)-N-(5-(5-(3,3-difluoro-2-hydroxypropyl)-1,2,4-oxadiazol-3-yl)-2-methylphenyl)imidazo[1,2-a]pyridine-3-carboxamide]
≤ 50 nM | Cc1ccn2c(C(=O)Nc3cc(-c4noc(CC5CCCCO5)n4)ccc3C)cnc2c1 (stereo not drawn) [Compound I-583, 7-methyl-N-(2-methyl-5-(5-((tetrahydro-2H-pyran-2-yl)methyl)-1,2,4-oxadiazol-3-yl)phenyl)imidazo[1,2-a]pyridine-3-carboxamide]
≤ 50 nM | Cc1ccc(-c2noc([C@H]3C[C@@H]3F)n2)cc1NC(=O)c1cnc2cc3c(cn12)C(C)OC3 (single isomer, unassigned) [Compound I-483, (4R*)—N-[5-[5-[(1R,2S)-2-fluorocyclopropyl]-1,2,4-oxadiazol-3-yl]-2-methyl-phenyl]-4-methyl-5-oxa-1,10-diazatricyclo[7.3.0.0^3,7]dodeca-2,7,9,11-tetraene-12-carboxamide]
≤ 50 nM | Cc1ccc(-c2noc(CC3CCCO3)n2)cc1NC(=O)c1cnc2cc(Cl)ccn12 (stereo not drawn) [Compound I-615, 7-Chloro-N-[2-methyl-5-[5-(tetrahydrofuran-2-ylmethyl)-1,2,4-oxadiazol-3-yl]phenyl]imidazo[1,2-a]pyridine-3-carboxamide]
≤ 50 nM | Cc1ccc(-c2noc([C@H]3C[C@@H]3F)n2)cc1NC(=O)c1cnc2cc(CCCC(C)(C)O)ccn12 [Compound I-452, N-[5-[5-[(1R,2S)-2-fluorocyclopropyl]-1,2,4-oxadiazol-3-yl]-2-methyl-phenyl]-7-(4-hydroxy-4-methyl-pentyl)imidazo[1,2-a]pyridine-3-carboxamide]
